Data taken from patent US8524635B2, “Antifungal composition” (DSM IP Assets B.V., priority 2006, dated 2013).

What was measured:
[1] = cited from earlier work
[2] = system: Helminthosporium solani; test: Seed-potatoes naturally contaminated with silver scurf, sprayed and stored; mould growth and sporulation; format: in vivo
Method: Freshly harvested seed-potatoes naturally contaminated with silver scurf were selected for this experiment. The seed-potatoes were treated with the compositions described in Table 4. All compositions contained 0.1% (v/v) of the sticking agent Prolong® (Holland Fyto, The Netherlands) and the surfactant Zipper® (Asepta BV, The Netherlands) in a concentration of 1 ml/l. Said compositions were sprayed on the seed-potatoes using well-known methods after which the seed-potatoes were stored under standard conditions. For each composition 9×25 seed-potatoes were used; of each composition one triple set of seed-potatoes (3×25) was judged visually on mould growth after 1 month of storage (t=1), after 3 months of storage (t=3) and after 6 months of storage (t=6). The mould growth is reported as increase of surface covered with moulds (in percentage). In addition the sporulation of the moulds on the seed-potatoes was examined and scored on a scale from 0 to 4 (0=no sporulation; 4=high sporulation).

[3] = system: Fusarium oxysporum f. sp. tulipae CBS116591 and Fusarium oxysporum f. sp. tulipae Tu467; test: Tulip bulbs (Prominence) inoculated with mould spores, treated, planted in pots; infection scored at full bloom; format: in vivo; conditions: for % of bulbs infected: average of 60 bulbs, control 100
Method: (§1) In this example tulip bulbs of the variety Prominence were treated with a 1:1 mixture of spores of the pathogenic moulds Fusarium oxysporum f. sp. tulipae CBS116591 and Fusarium oxysporum f. sp. tulipae Tu467 by submersing the bulbs for 30 minutes in a suspension containing 50.000-100.000 spores per ml. The mould spores were obtained using well-known methods. It should be noticed that in this challenge test the effect of the compositions was tested under very severe circumstances, because a very high number of mould spores was used. In real practise, the disease pressure will be less severe.
(§2) After the inoculation with mould spores the bulbs were dried following well-known methods. 40-60 minutes after drying the bulbs were treated with the different compositions described in Table 1. The compositions were prepared according to the instructions described on the label. All compositions contained 0.1% (v/v) of the sticking agent Prolong® (Holland Fyto, The Netherlands) and the surfactant Zipper® (Asepta BV, The Netherlands) in a concentration of 1 ml/l. Subsequently, the bulbs were planted in soil in pots (10 bulbs per pot) and incubated under well known standard conditions for growing tulips.
The bulbs were examined for mould infection when the flowers were at full bloom. For each incubation the average observation of 60 bulbs is given. Statistical analysis was performed after an ASIN transformation. The LSD at P=5% was 6.50.

[4] = system: Fusarium oxysporum f. sp. tulipae CBS116591 and Fusarium oxysporum f. sp. tulipae Tu467; test: Tulip bulb treatment as in Example 1, infected bulbs scored and grouped by ANOVA; format: in vivo; conditions: control 90.0, LSD at P=5% 6.50
Method: as §1, §2
This example describes the results of an experiment performed as described in Example 1. Just as in the experiment performed in Example 1, the pH of all solutions was adjusted to 5.7 with KOH or K2CO3 which results in a mixture of two phosphites, KH2PO3 and K2HPO3.
The results obtained with a composition comprising 25% of a standard cocktail which is generally applied in practice are included. This standard cocktail contains the commercial products 0.5% (v/v) Captan (546 gram active ingredient per liter), 0.3% (v/v) Prochloraz (450 g/l) and 1% (v/v) Topsin M (500 g/l). The number of infected bulbs was scored and grouped using the well-known statistical method ANOVA (LSD at P=5% was 6.50).

[5] = system: Fusarium oxysporum f. sp. tulipae CBS 116593; test: Wounded tulip bulbs infected after harvest, treated and stored 15 days at 24° C., visual mould growth; format: in vivo; conditions: 15 days storage; for Amount of non-infected bulbs (in %): control 40; for Amount of bulbs with visible moulds (in %): control 60
Source text: In this experiment tulip bulbs of the variety Prominence were infected just after harvesting with a spore suspension of Fusarium oxysporum f. sp. tulipae CBS 116593 and treated with the antifungal compositions presented in Table 3. This time, the bulbs were not planted but stored. In this experiment the efficacy of the antifungal composition during the storage of the bulbs was studied.
After harvesting, the outer dry skin of the bulbs was removed and the bulbs were disinfected by applying a treatment with 4% (v/v) Glorix® for 5 minutes. The bulbs were dried and a lesion of a few millimeters was made in the surface of the bulb using a knife. The wound was infected with 15 μl of a spore suspension of Fusarium oxysporum f. sp. tulipae; this way approximately 10.000 mould spores infected the wound after which the bulbs were treated with 30 μl of the compositions described in Table 3. Twenty bulbs were treated per composition. In one experiment the treatment with the antifungal composition was applied 12 hours after infection. The bulbs were incubated for 15 days at a temperature of 24° C. after which the bulbs were examined visually on mould growth.

[6] = system: most fungi; conditions: for most fungi; cited from earlier work
[7] = system: Fusarium oxysporum; conditions: bulbs dipped two hours at 43.5° C.; Dekker and Langerak (1979); cited from earlier work
[8] = system: Fusarium mould; conditions: Example 11 of WO 2004/067699; cited from earlier work

## C[C@@H]1C/C=C/C=C/C=C/C=C/[C@H](O[C@@H]2O[C@H](C)[C@@H](O)[C@H](N)[C@@H]2O)C[C@@H]2O[C@](O)(C[C@@H](O)C[C@H]3O[C@@H]3/C=C/C(=O)O1)C[C@H](O)[C@H]2C(=O)O [natamycin]
[1]
  solubility in water: 30-50 ppm
[2]; natamycin 2000 ppm, t = 1 (1 month of storage), water control 3.8
  Increase in percentage of the surface of seed-potatoes covered with mould: 1.5%
[2]; natamycin 2000 ppm, t = 1, scale 0 to 4, water control 2.7
  Sporulation of silver scurf moulds on seed potatoes: 0.8
[2]; natamycin 2000 ppm, t = 3 (3 months of storage), water control 3.4
  Increase in percentage of the surface of seed-potatoes covered with mould: 3.0%
[2]; natamycin 2000 ppm, t = 3, scale 0 to 4, water control 1.8
  Sporulation of silver scurf moulds on seed potatoes: 1.1
[2]; natamycin 2000 ppm, t = 6 (6 months of storage), water control 7.8
  Increase in percentage of the surface of seed-potatoes covered with mould: 3.8%
[2]; natamycin 2000 ppm, t = 6, scale 0 to 4, water control 2.4
  Sporulation of silver scurf moulds on seed potatoes: 1.8
[2]; natamycin 5000 ppm, t = 1 (1 month of storage), water control 3.8
  Increase in percentage of the surface of seed-potatoes covered with mould: 0.8%
[2]; natamycin 5000 ppm, t = 1, scale 0 to 4, water control 2.7
  Sporulation of silver scurf moulds on seed potatoes: 0.6
[2]; natamycin 5000 ppm, t = 3 (3 months of storage), water control 3.4
  Increase in percentage of the surface of seed-potatoes covered with mould: 2.6%
[2]; natamycin 5000 ppm, t = 3, scale 0 to 4, water control 1.8
  Sporulation of silver scurf moulds on seed potatoes: 1.2
[2]; natamycin 5000 ppm, t = 6 (6 months of storage), water control 7.8
  Increase in percentage of the surface of seed-potatoes covered with mould: 3.5%
[2]; natamycin 5000 ppm, t = 6, scale 0 to 4, water control 2.4
  Sporulation of silver scurf moulds on seed potatoes: 0.7
[3]; natamycin 0.2 g/l
  % of bulbs infected: 88%
[3]; natamycin 0.5 g/l
  % of bulbs infected: 90%
[4]; 200 ppm natamycin
  Score (mould infection of tulip bulbs): 76.0
[4]; 500 ppm natamycin
  Score (mould infection of tulip bulbs): 75.0
[5]; 500 ppm natamycin
  Amount of non-infected bulbs (in %): 60%
  Amount of bulbs with visible moulds (in %): 40%
[6]
  MIC (Minimal Inhibitory Concentration): less than 10 ppm
[7]
  preventing the spread of Fusarium oxysporum in the water baths (in words): as effective as organic mercury or formalin
[8]
  yellow mould spots on leaves growing from treated tulip bulbs (in words): some yellow spots

## copper lignosulphonate
[3]; conclusion from Table 1
  effect on mould infection of tulip bulbs (in words): did not lead to reduction of moulds
[3]; copper lignosulphonate 2 g/l
  % of bulbs infected: 97%

## potassium phosphite
[2]; phosphite 120 mM, t = 1 (1 month of storage), water control 3.8
  Increase in percentage of the surface of seed-potatoes covered with mould: 2.5%
[2]; phosphite 120 mM, t = 1, scale 0 to 4 (0=no sporulation; 4=high sporulation), water control 2.7
  Sporulation of silver scurf moulds on seed potatoes: 1.3
[2]; phosphite 120 mM, t = 3 (3 months of storage), water control 3.4
  Increase in percentage of the surface of seed-potatoes covered with mould: 4.0%
[2]; phosphite 120 mM, t = 3, scale 0 to 4, water control 1.8
  Sporulation of silver scurf moulds on seed potatoes: 1.0
[2]; phosphite 120 mM, t = 6 (6 months of storage), water control 7.8
  Increase in percentage of the surface of seed-potatoes covered with mould: 6.9%
[2]; phosphite 120 mM, t = 6, scale 0 to 4, water control 2.4
  Sporulation of silver scurf moulds on seed potatoes: 1.3
[3]; potassium phosphite 20 g/l
  % of bulbs infected: 87%
[4]; 120 mM phosphite, pH 5.7
  Score (mould infection of tulip bulbs): 72.9
[5]; 120 mM phosphite
  Amount of non-infected bulbs (in %): 50%
  Amount of bulbs with visible moulds (in %): 50%
